Patent publication US20090318430A1, “MEDICAL USE OF CYCLIN DEPENDENT KINASES INHIBITORS” (ASTEX THERAPEUTICS LIMITED, priority 2006, published 2009)
Counter-ions that a name gives are not always drawn. Blank lines part the entries; values can stand above or below the compound they belong to.

Key:
[1] = Solubility of the acid addition salt; assay type: physicochemical
[2] = system: rat model of focal cerebral ischemia; conditions: cited from earlier work
[3] = system: formalin-induced nociceptive responses in rats; conditions: cited from earlier work
[4] = system: jck and cpk mouse models of PKD; conditions: cited from earlier work
polycystic cpk mice = conditions: cited from earlier work
[5] = Vapour sorption/desorption analysis; assay type: physicochemical
Method: Crystals of 4-(2,6-dichlorobenzoylamino)-1H-pyrazole-3-carboxylic acid (1-methanesulphonyl-piperidin-4-yl)-amide prepared by the recrystallisation method of Example 11 Step 8 were subjected to vapour sorption/desorption analysis in order to test for the propensity of this sample to form a hydrated state.
Approximately 20 mg of sample was placed into a wire-mesh vapour sorption balance pan and loaded into an ‘IgaSorp’ vapour sorption balance (Hiden Analytical Instruments) held at 25+/−0.1° C. The sample was then dried by maintaining a 0% humidity environment (using mass flow control apparatus) until no further weight change was recorded. Subsequently, the sample was then subjected to a ramping profile from 0-90% relative humidity (% RH) at 10% RH increments, maintaining the sample at each step until equilibration had been attained (99.5% step completion).
Upon reaching equilibration, the % RH within the apparatus was ramped to the next step and the equilibration procedure repeated. After completion of the sorption cycle, the sample was then dried using the same procedure. The weight change during the sorption/desorption cycles was then monitored, allowing for the hygroscopic nature of the sample to be determined.

[6] = target: T1, Cdk5/p35 enzyme (Upstate) (Homo sapiens, UniProt Q00535); assay: Alternative CDK5 assay (DELFIA, biotinylated histone H1 peptide); assay type: biochemical; conditions: Cdk5/p35, ATP, 30 minutes at room temperature, TRF read-out
T1 construct: purchased Upstate
T1 sequence (Q00535 whole entry): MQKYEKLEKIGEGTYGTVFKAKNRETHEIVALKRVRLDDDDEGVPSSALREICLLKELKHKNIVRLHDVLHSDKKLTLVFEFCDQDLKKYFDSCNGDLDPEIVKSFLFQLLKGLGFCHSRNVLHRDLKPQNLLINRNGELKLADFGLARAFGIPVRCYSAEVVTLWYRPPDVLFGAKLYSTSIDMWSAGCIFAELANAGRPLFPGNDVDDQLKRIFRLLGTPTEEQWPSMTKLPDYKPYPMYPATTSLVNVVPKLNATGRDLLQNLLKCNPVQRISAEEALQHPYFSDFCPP
T1 sequence (Q15078 whole entry partner): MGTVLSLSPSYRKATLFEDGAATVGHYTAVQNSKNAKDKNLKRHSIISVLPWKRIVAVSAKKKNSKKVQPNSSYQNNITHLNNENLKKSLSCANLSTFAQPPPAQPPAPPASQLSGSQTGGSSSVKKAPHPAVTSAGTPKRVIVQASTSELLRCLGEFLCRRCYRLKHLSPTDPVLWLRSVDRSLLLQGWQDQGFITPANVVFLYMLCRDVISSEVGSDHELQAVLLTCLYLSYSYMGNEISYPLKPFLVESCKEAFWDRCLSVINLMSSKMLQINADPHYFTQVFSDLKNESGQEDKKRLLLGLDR
Method: In a 96-well polypropylene plate add 5 μl of 5× test compound (in 12.5% DMSO) per well. Prepare an assay mix of 2.5 μM biotinylated histone H1 peptide (Bachem), 2.5 mM DTT in 1× assay buffer (10× assay buffer contains 250 mM Tris-HCl pH7.5, 2.5 mM MgCl2, 0.025 Brij-35, 0.1 mg/ml BSA. Add 10 μl of assay mix per well. Prepare the Cdk5/p35 enzyme (Upstate) at 0.625 nM in 1× assay buffer with 37.5 μM ATP on ice. Add 10 μl per well to start the reaction, seal with sealing film and incubate for 30 minutes at room temperature on a plate shaker. Stop the reaction by the addition of 100 μl stop buffer (1× Blocker BSA-Pierce, 0.05% surfact-AMPS-20, 100 mM EDTA). Shake plate for 1 minute. Transfer 100 μl of the stopped reaction to a black Neutravidin coated plate. Shake at room temperature for 30 minutes. Wash plate 5× with 200 μl TBS-Tween. Add 100 μl of anti-phospho cdk1-substrate antibody (Calbiochem) at 1:1500 in 1×DELFIA assay buffer (Perkin Elmer) to each well. Shake for 1 hour at room temperature. Wash plate 5× with 200 μl TBS-Tween. Add 100 μl of Eu-labelled anti-rabbit IgG at 1:300 in 1×DELFIA assay buffer per well. Shake for 1 hour at room temperature. Wash plate 5× with 200 μl TBS-Tween. Add 100 μl DELFIA enhancement solution (Perkin Elmer) per well and incubate 5 minutes on a plate shaker at <900 rpm. Read using TRF enabled fluorimeter at 335ex/620em.

SMILES: O=C(NC1CCNCC1)c1n[nH]cc1NC(=O)c1c(Cl)cccc1Cl [methanesulphonic acid salt, 4-(2,6-dichlorobenzoylamino)-1H-pyrazole-3-carboxylic acid piperidin-4-ylamide methanesulphonate]
- solubility ([1]; pH 4.6, aqueous buffer, buffer formed from acetic acid and sodium acetate, solution pH approximately 4.6): ~35 mg/mL
- water solubility ([1]; water, qualitative statement): excellent water solubility

SMILES: CN1CC[C@H](c2c(O)cc(O)c3c(=O)cc(-c4ccccc4Cl)oc23)[C@H](O)C1 [flavopiridol]
- neuronal death [2]: significantly reduce neuronal death

SMILES: CC[C@H](CO)Nc1nc(NCc2ccccc2)c2ncn(C(C)C)c2n1 [roscovitine]
- formalin-induced nociceptive responses [3]: attenuate the formalin-induced nociceptive responses
- cystic disease [4]: effective arrest of cystic disease

SMILES: CC(=O)O[C@H]1C(=O)[C@@]2(C)[C@H]([C@H](OC(=O)c3ccccc3)[C@]3(O)C[C@H](OC(=O)[C@H](O)[C@@H](NC(=O)c4ccccc4)c4ccccc4)C(C)=C1C3(C)C)[C@]1(OC(C)=O)CO[C@@H]1C[C@@H]2O [taxol]
- progression of PKD and survival (polycystic cpk mice): inhibit the progression of PKD and prolongs the survival

- weight increase upon equilibration at 90% RH ([5]; crystals, 25 °C, stepwise 0-90% relative humidity): 0.24%
- IC50 [6]: < 100 nM
SMILES: CS(=O)(=O)N1CCC(NC(=O)c2n[nH]cc2NC(=O)c2c(Cl)cccc2Cl)CC1 [Example 12, 4-(2,6-dichloro-benzoylamino)-1H-pyrazole-3-carboxylic acid (1-methanesulphonyl-piperidin-4-yl)-amide]
- hygroscopicity / hydrate formation ([5]; storage in elevated humidity conditions): physically stable with regard to hygroscopicity
